Tests used:
[1] = molecular target: T1, Recombinant human DDR1 (Homo sapiens, UniProt Q08345); assay: LanthaScreen Eu Kinase Binding Assay, DDR1; details: recombinant human DDR1 (2.5 nM; aa440-876, GST tag), Kinase Tracer 178 5 nM, time-resolved fluorescence, at least two independent replicates; read-out: DDR1 pIC50 (converted)
T1 construct: Recombinant human DDR1 (2.5 nM; aa440-876 containing a GST tag)
Procedure: (§1) DDR1 and DDR2 Biochemical Assay Method
(§2) The capacity of compounds to bind to DDR1 and DDR2 was quantified using a LanthaScreen Eu Kinase Binding Assay. Recombinant human DDR1 (2.5 nM; aa440-876 containing a GST tag) and DDR2 (1.75 nM; aa427-855 containing a GST tag) were diluted in assay buffer (50 mM HEPES pH7.3, 10 mM MgCl2, 1 mM EGTA and 0.01% Tween) with various concentrations of compound in a 384-well plate and a volume of 5 uL. After a 30-minute incubation at room temperature, 2.5 uL of Eu-anti GST antibody (diluted to 1 nM in assay buffer) plus Kinase Tracer 178 (diluted in assay buffer to 5 nM for DDR1 and 10 nM for DDR2) were added to the plate. Following 60-minute incubation at room temperature, time-resolved fluorescence was measured on a BMG Labtech PHERAstar plate reader. DMSO (1%) and reference compound (1 μM) were used to generate the Max and Min assay signals, respectively. Data was analysed using a four-parameter logistic model to calculate IC50 values, with at least two independent replicates were performed for each compound.

[2] = molecular target: T2, Recombinant human DDR2 (Homo sapiens, UniProt Q16832); assay: LanthaScreen Eu Kinase Binding Assay, DDR2; details: recombinant human DDR2 (1.75 nM; aa427-855, GST tag), Kinase Tracer 178 10 nM, time-resolved fluorescence, at least two independent replicates; read-out: DDR2 pIC50 (converted)
T2 construct: DDR2 (1.75 nM; aa427-855 containing a GST tag)
T2 sequence (Q16832 427-855): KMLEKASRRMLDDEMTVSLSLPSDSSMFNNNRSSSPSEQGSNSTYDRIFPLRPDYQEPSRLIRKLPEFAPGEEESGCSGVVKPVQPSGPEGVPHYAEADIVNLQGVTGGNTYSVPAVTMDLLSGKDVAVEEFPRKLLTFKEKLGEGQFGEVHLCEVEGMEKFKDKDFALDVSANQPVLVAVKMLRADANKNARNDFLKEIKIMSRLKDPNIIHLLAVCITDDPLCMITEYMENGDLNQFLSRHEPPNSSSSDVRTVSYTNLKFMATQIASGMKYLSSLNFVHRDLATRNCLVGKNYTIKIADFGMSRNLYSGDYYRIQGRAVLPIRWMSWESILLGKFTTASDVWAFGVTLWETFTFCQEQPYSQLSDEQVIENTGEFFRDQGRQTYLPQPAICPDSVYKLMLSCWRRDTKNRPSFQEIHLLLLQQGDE
Procedure: as §1, §2

T1 sequence (Q08345 440-876 isoform Q08345-2): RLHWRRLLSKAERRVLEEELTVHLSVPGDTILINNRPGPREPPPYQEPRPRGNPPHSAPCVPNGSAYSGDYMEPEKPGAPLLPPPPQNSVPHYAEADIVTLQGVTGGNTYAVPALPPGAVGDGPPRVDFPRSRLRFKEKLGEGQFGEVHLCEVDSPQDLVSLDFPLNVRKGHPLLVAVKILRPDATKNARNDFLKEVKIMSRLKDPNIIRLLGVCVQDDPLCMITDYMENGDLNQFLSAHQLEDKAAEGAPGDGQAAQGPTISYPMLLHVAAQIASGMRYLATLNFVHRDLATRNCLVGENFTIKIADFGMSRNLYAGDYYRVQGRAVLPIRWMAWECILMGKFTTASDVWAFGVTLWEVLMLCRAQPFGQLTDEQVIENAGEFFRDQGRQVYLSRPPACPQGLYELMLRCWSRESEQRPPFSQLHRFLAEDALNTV

Row | IC50 [1] [nM] | IC50 [2] [nM] | Compound
1 | 10 to 100 | 100 to 1000 | Cn1ncc2cc(Nc3cccc4ccn(CC(=O)N5CCC[C@H]5C(F)(F)F)c(=O)c34)cnc21 [Example 78, 8-[(1-methylpyrazolo[3,4-b]pyridin-5-yl)amino]-2-[2-oxo-2-[(2S)-2-(trifluoromethyl)pyrrolidin-1-yl]ethyl]isoquinolin-1-one]
2 | 100 to 1000 | ≥ 1000 | Cn1ncc2cc(Nc3cc(F)cc4ccn(CC(=O)NCC(F)(F)F)c(=O)c34)ccc21 [Example 47, 2-[6-fluoro-8-[(1-methylindazol-5-yl)amino]-1-oxo-2-isoquinolyl]-N-(2,2,2-trifluoroethyl) acetamide]
3 | 10 to 100 | 10 to 100 | Cc1cc(C)n(C(=O)Cn2ccc3cccc(Nc4ccc5c(cnn5C)c4)c3c2=O)n1 [Example 98, 2-[2-(3,5-dimethyl-1H-pyrazol-1-yl)-2-oxoethyl]-8-[(1-methyl-1H-indazol-5-yl)amino]-1,2-dihydroisoquinolin-1-one]
4 | < 10 | < 10 | Cn1ncc2cc(Nc3cccc4ccn(CC(=O)Nc5cncc(C(F)(F)F)c5)c(=O)c34)ccc21 [Example 31, 2-[8-[(1-methylindazol-5-yl)amino]-1-oxo-2-isoquinolyl]-N-[5-(trifluromethyl)-3-pyridyl]acetamide]
5 | 10 to 100 | ≥ 1000 | COc1ccc(NC(=O)Cn2ccc3cccc(Nc4ccc5c(cnn5C)c4)c3c2=O)cc1 [Example 55, N-(4-methoxyphenyl)-2-[8-[(1-methylindazol-5-yl)amino]-1-oxo-2-isoquinolyl]acetamide]
6 | ≥ 1000 | ≥ 1000 | Cn1ncc2cc(Nc3cccc4ccn(CC(=O)Nc5ccncc5)c(=O)c34)ccc21 [Example 26, 2-[8-[(1-methylindazol-5-yl)amino]-1-oxo-2-isoquinolyl]-N-(4-pyridyl)acetamide]
7 | 10 to 100 | 10 to 100 | CC(NC(=O)Cn1ccc2cccc(Nc3ccc4c(cnn4C)c3)c2c1=O)C(F)(F)F (centres unmarked) [Example 12, 2-[8-[(1-methylindazol-5-y)amino]-1-oxo-2-isoquinolyl]-N-(2,2,2-trifluoro-1-methyl-ethyl)acetamide]
8 | 10 to 100 | 100 to 1000 | Cn1ncc2cc(Nc3cccc4ccn(CC(=O)N5CCOCC5C(F)(F)F)c(=O)c34)ccc21 (centres unmarked) [Example 87, 8-[(1-methylindazol-5-yl)amino]-2-[2-oxo-2-[3-(trifluoromethyl)morpholin-4-yl]ethyl]isoquinolin-1-one]
9 | 10 to 100 | 10 to 100 | CC[C@H](NC(=O)Cn1ccc2cccc(Nc3ccc4c(cnn4C)c3)c2c1=O)C(F)(F)F [Example 45, 2-[8-[(1-methylindazol-5-yl)amino]-1-oxo-2-isoquinolyl]-N-[(1S)-1-(trifluoromethyl)propyl]acetamide]
10 | < 10 | 10 to 100 | CN(C)Cc1cc(NC(=O)Cn2ccc3cccc(Nc4ccc5c(cnn5C)c4)c3c2=O)cc(C(F)(F)F)c1 [Example 154, N-[3-[(dimethylamino)methyl]-5-(trifluoromethyl)phenyl]-2-[8-[(1-methylindazol-5-yl)amino]-1-oxo-2-isoquinolyl]acetamide]
11 | 100 to 1000 | ≥ 1000 | Cn1ncc2cc(Nc3cccc4ccn(CC(=O)NCC(C)(C)O)c(=O)c34)ccc21 [Example 54, N-(2-hydroxy-2-methyl-propyl)-2-[8-[(1-methylindazol-5-yl)amino]-1-oxo-2-isoquinolyl]acetamide]
12 | 10 to 100 | 100 to 1000 | Cn1ncc2cc(Nc3cccc4ccn(CC(=O)NC(C5CC5)C(F)(F)F)c(=O)c34)ccc21 (centres unmarked) [Example 33, N-(1-cyclopropyl-2,2,2-trifluoro-ethly)-2-[8-[(1-methylindazol-5-yl)amino]-1-oxo-2-isoquinolyl]acetamide]
13 | 10 to 100 | 10 to 100 | COC(=O)c1cncc(NC(=O)Cn2ccc3cccc(Nc4ccc5c(cnn5C)c4)c3c2=O)c1 [Example 63]
14 | 100 to 1000 | ≥ 1000 | CC(=O)C1CCCCN1C(=O)Cn1ccc2cccc(Nc3ccc4c(cnn4C)c3)c2c1=O (centres unmarked) [Example 141, 2-[2-(2-acetyl-1-piperidyl)-2-oxoethyl]-8-[(1-methylindazol-5-yl)amino]isoquinolin-1-one]
15 | 10 to 100 | 10 to 100 | COc1cncc(NC(=O)Cn2ccc3cccc(Nc4ccc5c(cnn5C)c4)c3c2=O)c1 [Example 56, N-(5-methoxy-3-pyridyl)-2-[8-[(1-methylindazol-5-yl)amino]-1-oxo-2-isoquinolyl]acetamide]
16 | 10 to 100 | 100 to 1000 | CN(c1ccc2c(cnn2C)c1)c1cccc2ccn(CC(=O)NCC(F)(F)F)c(=O)c12 [Example 88, 2-[8-[methyl-(1-methylindazol-5-yl)amino]-1-oxo-2-isoquinolyl]-N-(2,2,2-trifluoroethyl) acetamide]
17 | 100 to 1000 | 100 to 1000 | Cn1ncc2cc(Nc3cccc4ccn(CC(=O)N5CCOCC5)c(=O)c34)ccc21 [Example 11]
18 | ≥ 1000 | ≥ 1000 | CN1CCN(C(=O)Cn2ccc3cccc(Nc4ccc5c(cnn5C)c4)c3c2=O)CC1 [Example 13, 8-[(1-methylindazol-5-yl)amino]-2-[2-(4-methylpiperazin-1-yl)-2-oxo-ethyl]isoquinolin-1-one]
19 | < 10 | 10 to 100 | Cn1ncc2cc(Nc3cccc4ccn(CC(=O)Nc5cnoc5)c(=O)c34)ccc21 [Example 37, N-isoxazol-4-yl-2-[8-[(1-methylindazol-5-yl)amino]-1-oxo-2-isoquinolyl]acetamide]
20 | 100 to 1000 | ≥ 1000 | Cn1ncc2cc(Nc3cccc4ccn(CC(=O)NC5CCOCC5)c(=O)c34)ccc21 [Example 15, 2-[8-[(1-methylindazol-5-yl)amino]-1-oxo-2-isoquinolyl]-N-tetrahydropyran-4-yl-acetamide]
21 | 10 to 100 | 10 to 100 | Cc1n[nH]c2cc(Nc3cccc4ccn(CC(=O)Nc5cnoc5)c(=O)c34)ccc12 [Example 158, N-isoxazol-4-yl-2-[8-[(3-methyl-1H-indazol-6-yl)amino]-1-oxo-2-isoquinolyl]acetamide]
22 | 100 to 1000 | ≥ 1000 | Cn1ncc2cc(Nc3cccc4ccn(CC(=O)NCCC(F)(F)F)c(=O)c34)ccc21 [Example 44, 2-[8-[(1-methylindazol-5-yl)amino]-1-oxo-2-isoquinolyl]-N-(3,3,3-trifluoropropyl)acetamide]
23 | ≥ 1000 | ≥ 1000 | CN1CCC(NC(=O)Cn2ccc3cccc(Nc4ccc5c(cnn5C)c4)c3c2=O)CC1 [Example 18, 2-[8-[(1-methylindazol-5-y)amino]-1-oxo-2-isoquinolyl]-N-(1-methyl-4-piperidyl)acetamide]
24 | 100 to 1000 | ≥ 1000 | Cn1ccc(NC(=O)Cn2ccc3cccc(Nc4ccc5c(cnn5C)c4)c3c2=O)n1 [Example 34, 2-[8-[(1-methylindazol-5-yl)amino]-1-oxo-2-isoquinolyl]-N-(1-methylpyrazol-3-yl)acetamide]
25 | 10 to 100 | 100 to 1000 | Cc1cn(-c2cc(NC(=O)Cn3ccc4cccc(Nc5ccc6c(cnn6C)c5)c4c3=O)cc(C(F)(F)F)c2)cn1 [Example 79, N-[3-(4-methylimidazol-1-yl)-5-(trifluoromethyl)phenyl]-2-[8-[(1-methylindazol-5-yl)amino]-1-oxo-2-isoquinolyl]acetamide]
26 | 10 to 100 | 10 to 100 | CC(C)[C@H](NC(=O)Cn1ccc2cccc(Nc3ccc4c(cnn4C)c3)c2c1=O)C(F)(F)F [Example 46, 2-[8-[(1-methylindazol-5-yl)amino]-1-oxo-2-isoquinolyl]-N-[(S)-2-methyl-1-(trifluoromethyl)propyl]acetamide]
27 | 10 to 100 | 100 to 1000 | CN(CC(F)(F)F)C(=O)Cn1ccc2cccc(Nc3ccc4c(cnn4C)c3)c2c1=O [Example 23, N-methyl-2-[8-[(1-methylindazol-5-yl)amino]-1-oxo-2-isoquinolyl]-N-(2,2,2-trifluoroethyl)acetamide]
28 | < 10 | ≥ 1000 | Cn1ncc2cc(Nc3cccc4ccn(CC(=O)Nc5ccc(C(F)(F)F)cc5)c(=O)c34)ccc21 [Example 30, 2-[8-[(1-methylindazol-5-yl)amino]-1-oxo-2-isoquinolyl]-N-[4-(trifluoromethyl)phenyl]acetamide]
